# According to paper PMC8555909, “Identification of CYP 2A6 inhibitors in an effort to mitigate the harmful effects of the phytochemical nicotine” (Journal of cancer metastasis and treatment, 2021):
# Molecular target: T1, human CYP2A6 enzyme (cytochrome P450 2A6) (Homo sapiens, UniProt P11509)
# T1 construct: purchased Life Technologies PV6140; host or cells: insect cells (baculosomes)
# T1 sequence (P11509 1-494): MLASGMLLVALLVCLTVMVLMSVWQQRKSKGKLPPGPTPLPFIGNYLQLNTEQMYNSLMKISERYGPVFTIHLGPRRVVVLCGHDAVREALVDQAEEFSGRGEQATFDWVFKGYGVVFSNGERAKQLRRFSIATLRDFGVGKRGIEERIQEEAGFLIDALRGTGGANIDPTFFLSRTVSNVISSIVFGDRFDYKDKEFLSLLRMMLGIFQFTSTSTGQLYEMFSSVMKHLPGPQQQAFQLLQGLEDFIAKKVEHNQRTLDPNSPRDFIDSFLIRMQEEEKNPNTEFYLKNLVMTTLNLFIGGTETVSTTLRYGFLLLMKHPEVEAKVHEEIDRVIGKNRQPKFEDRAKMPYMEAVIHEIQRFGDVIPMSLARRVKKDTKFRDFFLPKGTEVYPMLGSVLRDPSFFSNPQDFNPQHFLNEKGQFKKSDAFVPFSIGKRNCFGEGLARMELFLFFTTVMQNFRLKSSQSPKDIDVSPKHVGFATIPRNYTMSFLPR
# Assay: P450 2A6 inhibition assay (Vivid CYP450 Screening Kit, baculosomes)
# Assay type: biochemical
# Details: for IC50: microsomes from insect cells expressing human CYP2A6, 10 min pre-incubation, 2 h reaction at room temperature, highest concentration in dose-response curves 40 μM, triplicates; for P450 2A6 inhibition activity (in words): screening at 10 μM followed by dose-response curve; for IC50 of P450 2A6 inhibition (in words): dose-response curve
# Description: Cytochrome P450 2A6 (Cyp2A6) activity was determined using the Vivid CYP450 Screening Kit (Life Technologies, catalog #PV6140) according to the manufacturer’s instructions. Briefly, a master pre-mix containing baculosomes and regeneration system was prepared using 0.5× Vivid reaction buffer II. The test compounds were dissolved in dimethyl sulfoxide (DMSO) at a concentration of 100 mM. From the stock solutions, each compound was serially diluted in 0.5× Vivid reaction buffer II to make working stocks of 100 μM, 50 μM, 25 μM and so on up to 10 dilutions. It is essential to dilute the DMSO at least 1000-fold when making the working dilutions to prevent its interference with the enzyme activity. An initial high-throughput screening was performed at 10 μM concentration for each compound. For the dose-response curve determination, in a 96-well plate, 40 μL of the diluted solutions of each test compound were added to each well, followed by 50 μl of the master pre-mix, before incubation for 10 min at room temperature. A 10× mixture of Vivid substrate (reconstituted with acetonitrile) and NADP^+ was then prepared. At the end of the incubation period, 10 μL of this solution was added to each well to start the reaction. After 2 hours of incubation in the dark at room temperature, the plate was read at 415 nm on a plate reader (Synergy H1, Biotek). For a positive inhibition control, tranylcypromine (Sigma-Aldrich, cat. #P8511) was used at a final concentration of 100 μM. For a negative (no inhibitor) control, a 1:1000 dilution of pure DMSO in 0.5× Vivid reaction buffer was used. Each concentration in the dose-response curve was set up in triplicates, and each data point was the average of triplicate wells. The % inhibition was calculated using the following equation. %Inhibition=(1−X−B/A−B)*100 where X is the fluorescence observed in presence of the test compound; A is the fluorescence observed in the absence of an inhibitor (no inhibitor control); and B is the fluorescence observed for the positive control. For graphing purposes, percent inhibition vs. anti-log[drug concentration] was plotted. A logistic sigmoidal model was used to fit the data and obtain IC50 values using Graphpad Prism software.
# The syntheses of compounds 1 to 7 [Figure 1] were accomplished using the synthetic Schemes 1 and 2. […] Nicotine-mimicking compounds containing imidazole or methyl substituted imidazole side chains with varied sizes of 1–3 carbon alkyl spacers at position 3 of the pyridine ring were synthesized using Scheme 1 (compounds 1, 4 and 7). Based on our previous findings that acetylenic substituents can interact with the P450 active site amino acids and lead to mechanism-based inhibition, triple bond in the form of propargyl ether was incorporated in a second series of compounds at positions 2, 3 or 4 of the pyridine ring as an ether linkage (compounds 3, 6 and 2, respectively). Positions 2 and 4 were used to investigate whether substituted compounds at those positions would show a difference in their inhibition activities compared to the 3-position substituted compound. A longer spacer in between the propargyl ether and the 4-position of the pyridine ring was introduced to investigate whether a greater flexibility in the positioning of the key functional groups (pyridine ring and the alkyne moiety) in the binding site would be achieved. The Vivid CYP450 Screening Kit (Life Technologies, catalog #PV6140) was used for the P450 2A6 inhibition assays. An initial high-throughput screening was performed at a 10 μM concentration followed by a dose-response curve determination.
# The inhibition studies on our compounds were performed using a Vivid CYP2A6 Kit (Life Technologies, catalog #PV6140). This kit uses microsomes from insect cells stably expressing human CYP2A6 enzyme. […]
IC50 [µM],P450 2A6 inhibition activity (in words),IC50 of P450 2A6 inhibition (in words),Compound
> 40,much lower inhibition,,"C#CCOc1ccncc1 [Compound 2, 4-(prop-2-yn-1-yloxy)pyridine]"
,did not inhibit,,"C#CCOc1ccccn1 [Compound 3, 2-(prop-2-yn-1-yloxy)pyridine]"

# Continued, compound first:
Compound,IC50 [µM],P450 2A6 inhibition activity (in words),IC50 of P450 2A6 inhibition (in words)
"Cc1nccn1Cc1cccnc1 [Compound 7, 3-[(2-methyl-1H-imidazol-1-yl)methyl] pyridine]",> 40,moderate inhibition activity,
Cc1nccn1CCCc1cccnc1 [Compound 1],9.03,,single digit micromolar
"C#CCOCCCc1ccncc1 [Compound 5, 4-(3-(prop-2-yn-1-yloxy)propyl)pyridine]",> 40,moderate inhibition activity,
"C#CCOCc1cccnc1 [Compound 6, 3-((prop-2-yn-1-yloxy)methyl)pyridine]",1,,single digit micromolar
"c1cncc(Cn2ccnc2)c1 [Compound 4, 3-((1H-imidazol-1-yl)methyl)pyridine]",5.02,,single digit micromolar
